The record followed here is PubChem BioAssay AID623973 (The Scripps Research Institute Molecular Screening Center, 2012).

Calls of active or inactive are those of the source. The rule behind the calls is not given here.

Broadly, the IC50 is the concentration that inhibits the measured activity by half.

The target of the test is Hepatitis C virus NS3 helicase (ATPase activity). Description: inhibitors of HCV NS3 ATPase activity, late-stage follow-up, mechanism study for HCV NS3 helicase inhibitor project, biochemical, absorbance (AID 623973). The following applies: absorbance phosphate detection.
Consider `Cc1ccc2nc(-c3ccc4nc(-c5ccc(NC(=O)c6ccc(Br)cc6)cc5)sc4c3)sc2c1S(=O)(=O)O`, for which the IC50 was 50 µM.
As to `COc1cccc2c(=O)c3cc(Cl)cc(C(=O)Nc4cc(Cl)ccn4)c3[nH]c12`, the IC50 was > 200 µM (inactive).
For `Cc1ccc2nc(-c3ccc(N)cc3)sc2c1S(=O)(=O)O`, the IC50 was > 200 µM (inactive).
Regarding `Cc1ccc2nc(-c3ccc4nc(-c5ccc(NC(=O)c6ccc(Cl)c(Cl)c6)cc5)sc4c3)sc2c1S(=O)(=O)O`, the 50% inhibitory concentration (IC50) was 44 µM.
`Cc1ccc(C(=O)Nc2ccc(-c3nc4ccc(-c5nc6ccc(C)c(S(=O)(=O)O)c6s5)cc4s3)cc2)cc1`: the IC50 is 33 µM.
As to `Cc1cc(C(O)(c2ccc(Nc3ccccc3)cc2)c2ccc(Nc3ccc(S(=O)(=O)O)cc3)cc2)ccc1N` (stereo unspecified), the IC50 was > 200 µM (inactive).
Turning to `Cc1ccc2nc(-c3ccc4nc(-c5ccc(NC(=O)c6ccc7ccccc7c6)cc5)sc4c3)sc2c1S(=O)(=O)O`, the IC50 is 30 µM.
As for `Cc1ccc2nc(-c3ccc4nc(-c5ccc(NC(=O)c6cc(C(F)(F)F)ccc6F)cc5)sc4c3)sc2c1S(=O)(=O)O`, the IC50 is 61 µM.
Turning to `COc1ccc(C(=O)Nc2ccc(-c3nc4ccc(-c5nc6ccc(C)c(S(=O)(=O)O)c6s5)cc4s3)cc2)cc1`, the IC50 was 50 µM.
For the molecule `Cc1ccc2nc(-c3ccc4nc(-c5ccc(NC(=O)c6ccc(N)cc6)cc5)sc4c3)sc2c1S(=O)(=O)O`, the IC50 entry was “inactive”.
For `Cc1ccc2nc(-c3ccc4nc(-c5ccc(N)cc5)sc4c3)sc2c1S(=O)(=O)O` the value was > 200 µM (inactive).
With `Cc1ccc2nc(-c3ccc4nc(-c5ccc(NC(=O)c6cc(C(F)(F)F)cc(C(F)(F)F)c6)cc5)sc4c3)sc2c1S(=O)(=O)O`, the IC50 entry is “inactive”.
Consider `Cc1cc2sc(-c3ccc4nc(-c5ccc(N)cc5)sc4c3)nc2cc1S(=O)(=O)O`, for which the IC50 was > 200 µM (inactive).
For the molecule `O=C(CCCCCCC(=O)Nc1ccc(-c2nc3ccccc3[nH]2)cc1)Nc1ccc(-c2nc3ccccc3[nH]2)cc1`, the IC50 was > 200 µM (inactive).
In the case of `Cc1ccc2nc(-c3ccc4nc(-c5ccc(NC(=O)Nc6ccc(Cl)cc6)cc5)sc4c3)sc2c1S(=O)(=O)O`, the IC50 was 86 µM.
With `Cc1cc2sc(-c3ccc(N)cc3)nc2cc1S(=O)(=O)O`, the IC50 was > 200 µM (inactive).
As to `COc1ccc(NC(=O)Nc2ccc(-c3nc4ccc(-c5nc6ccc(C)c(S(=O)(=O)O)c6s5)cc4s3)cc2)cc1`, the IC50 was 73 µM.
In the case of `Cc1ccc2nc(-c3ccc4nc(-c5ccc(NC(=O)c6ccc7nc(-c8ccc(N)cc8)sc7c6)cc5)sc4c3)sc2c1S(=O)(=O)O`, the IC50 is > 200 µM (inactive).
For the molecule `Cc1ccc2nc(-c3ccc4nc(-c5ccc(NC(=O)c6ccc(F)cc6)cc5)sc4c3)sc2c1S(=O)(=O)O`, the IC50 was 67 µM.
In the case of `CCN(CC)c1ccc(-c2nc3ccc(-c4nc5ccc(C)c(S(=O)(=O)O)c5s4)cc3s2)cc1`, the IC50 was > 200 µM (inactive).
On to `Cc1ccc2nc(-c3ccc4nc(-c5ccc(NC(=O)c6ccc(C(C)(C)C)cc6)cc5)sc4c3)sc2c1S(=O)(=O)O`, for which the IC50 result was “inactive”.
Under `Cc1ccc2nc(-c3ccc(NC(=O)c4ccc(NC(=O)Nc5ccccc5)cc4)cc3)sc2c1S(=O)(=O)O` stands > 200 µM (inactive); under `CN1CCN(Cc2cc(CN3CCN(C)CC3)c(O)c(=O)c(CN3CCN(C)CC3)c2)CC1`, > 200 µM (inactive).
`Cc1ccc2nc(-c3ccc4nc(-c5ccc(NC(=O)Nc6ccccc6)cc5)sc4c3)sc2c1S(=O)(=O)O`: the IC50 is 70 µM.
As for `Cc1ccc2c(sc(-c3ccc4c(c3)sc(-c3ccc5c(c3)sc(-c3ccc(N(C)C)cc3)[n+]5C)[n+]4C)[n+]2C)c1S(=O)(=O)O` (tested in a mixture with another compound), the IC50 was > 200 µM (inactive).
Turning to `Cc1ccc2nc(-c3ccc4nc(-c5ccc6nc(-c7ccc8nc(-c9ccc(N)cc9)sc8c7)sc6c5)sc4c3)sc2c1S(=O)(=O)O`, the IC50 is 43 µM.
Regarding `CCOc1ccc2c(NNC(=O)c3cnccn3)c3c(nc2c1)CCCC3`, the IC50 was > 200 µM (inactive).
Turning to `Cc1ccc2nc(-c3ccc4nc(-c5ccc(NC(=O)c6cccnc6)cc5)sc4c3)sc2c1S(=O)(=O)O`, the IC50 was > 200 µM (inactive).
Regarding `CCN(CC)c1ccc(-c2nc3ccc(C)c(S(=O)(=O)O)c3s2)cc1`, the IC50 is > 200 µM (inactive).
On to `Cc1ccc2nc(-c3ccc4nc(-c5ccc(NC(=O)c6cccc(Cl)c6)cc5)sc4c3)sc2c1S(=O)(=O)O`, for which the IC50 is 74 µM.
As to `Cc1ccc2nc(-c3ccc4nc(-c5ccc(NC(=O)c6ccc(C(F)(F)F)cc6)cc5)sc4c3)sc2c1S(=O)(=O)O`, the half-inhibitory concentration (IC50) was 24 µM.
